Reference: article PMC8042013 (Nature Communications, 2021)

Target: T1, OsCERK1-ECD (Oryza sativa, UniProt A0A0P0XII1)
T1 construct: gene CERK1; N-terminal gp67 signal peptide for secretion, C-terminal His6; baculovirus, Trichoplusia ni High Five cells; secreted soluble protein
T1 sequence (A0A0P0XII1 19-240 limits assumed): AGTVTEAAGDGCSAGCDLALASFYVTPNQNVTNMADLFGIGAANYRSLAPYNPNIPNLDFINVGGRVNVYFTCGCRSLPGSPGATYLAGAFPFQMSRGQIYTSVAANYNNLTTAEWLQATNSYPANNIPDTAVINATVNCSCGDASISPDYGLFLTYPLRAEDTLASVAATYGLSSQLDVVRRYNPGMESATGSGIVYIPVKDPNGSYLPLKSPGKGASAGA
Assay: microscale thermophoresis, label-free
Assay type: binding
Settings: 50 mM Tris-HCl pH 7.8, 150 mM NaCl, 10 mM MgCl2, 0.05% Tween-20

Row | Compound | Kd
1 | OC[C@H]1O[C@@H](O[C@H]2[C@H](O)[C@@H](O)[C@H](O[C@H]3[C@H](O)[C@@H](O)[C@H](O[C@H]4[C@H](O)[C@@H](CO)OC(O)[C@@H]4O)O[C@@H]3CO)O[C@@H]2CO)[C@H](O)[C@@H](O)[C@@H]1O (stereo partly drawn) [BGTETB, 3^1-β-D-cellotriosyl-glucose] | 2.9 ± 0.57 µM
2 | OC[C@H]1O[C@@H](O[C@@H]2[C@@H](O)[C@H](O[C@H]3[C@H](O)[C@@H](O)C(O)O[C@@H]3CO)O[C@H](CO)[C@H]2O)[C@H](O)[C@@H](O)[C@@H]1O (stereo partly drawn) [BGTRIA, 3^2-β-D-glucosyl-cellobiose] | 4.38 ± 0.58 µM
3 | OC[C@H]1O[C@@H](O[C@H]2[C@H](O)[C@@H](O)[C@H](O[C@H]3[C@H](O)[C@@H](CO)OC(O)[C@@H]3O)O[C@@H]2CO)[C@H](O)[C@@H](O)[C@@H]1O (stereo partly drawn) [BGTRIB, 3^1-β-D-cellobiosyl-glucose] | 1.95 ± 0.45 µM
4 | OC[C@H]1O[C@@H](O[C@H]2[C@H](O)[C@@H](O)[C@H](O[C@H]3[C@H](O)[C@@H](O)[C@H](O[C@H]4[C@H](O)[C@@H](O)C(O)O[C@@H]4CO)O[C@@H]3CO)O[C@@H]2CO)[C@H](O)[C@@H](O)[C@@H]1O (some centres unmarked) [CTE, cellotetraose] | 2.84 ± 0.89 µM
5 | OC[C@H]1O[C@@H](O[C@H]2[C@H](O)[C@@H](O)[C@H](O[C@H]3[C@H](O)[C@@H](O)C(O)O[C@@H]3CO)O[C@@H]2CO)[C@H](O)[C@@H](O)[C@@H]1O (some centres unmarked) [CTR, cellotriose] | 4.28 ± 1.67 µM
